Results reported in the NIST ThermoML archive (doi:10.1021/je2008582).

Conditions: Liquid, Vibrating tube method

CCCCCCCC/C=C\CCCCCCCC(=O)OC [methyl cis-9-octadecenoate]
Conditions	mass density [kg/m3]
270 K, 490 kPa	892.3
270 K, 990 kPa	892.6
270 K, 1990 kPa	893.2
270 K, 2990 kPa	893.7
270 K, 3990 kPa	894.3
270 K, 4990 kPa	894.8
270 K, 9990 kPa	897.4
270 K, 19990 kPa	902.4
270 K, 29990 kPa	907.1
270 K, 39990 kPa	911.7
270 K, 49830 kPa	915.9
290 K, 490 kPa	877.7
290 K, 1000 kPa	878
290 K, 2000 kPa	878.6
290 K, 3000 kPa	879.2
290 K, 3990 kPa	879.8
290 K, 4990 kPa	880.4
290 K, 10000 kPa	883.3
290 K, 19990 kPa	888.7
290 K, 29990 kPa	893.8
290 K, 39990 kPa	898.7
290 K, 49960 kPa	903.4
310 K, 490 kPa	863.3
310 K, 990 kPa	863.6
310 K, 2000 kPa	864.3
310 K, 3000 kPa	865
310 K, 4000 kPa	865.6
310 K, 5000 kPa	866.2
310 K, 9990 kPa	869.3
310 K, 20000 kPa	875.3
310 K, 29990 kPa	880.8
310 K, 39990 kPa	886.1
310 K, 49990 kPa	891.1
330 K, 500 kPa	849
330 K, 1000 kPa	849.3
330 K, 2000 kPa	850.1
330 K, 3000 kPa	850.8
330 K, 3990 kPa	851.5
330 K, 4990 kPa	852.2
330 K, 10000 kPa	855.6
330 K, 19990 kPa	862
330 K, 29990 kPa	868
330 K, 39990 kPa	873.6
330 K, 49990 kPa	878.9
350 K, 500 kPa	834.6
350 K, 990 kPa	835
350 K, 2000 kPa	835.8
350 K, 2990 kPa	836.6
350 K, 3990 kPa	837.3
350 K, 5000 kPa	838.1
350 K, 9990 kPa	841.8
350 K, 20000 kPa	848.8
350 K, 30000 kPa	855.3
350 K, 40000 kPa	861.3
350 K, 49980 kPa	867
370 K, 500 kPa	820.1
370 K, 990 kPa	820.6
370 K, 1990 kPa	821.4
370 K, 2990 kPa	822.3
370 K, 3990 kPa	823.2
370 K, 5010 kPa	824
370 K, 10000 kPa	828.1
370 K, 20010 kPa	835.7
370 K, 29990 kPa	842.6
370 K, 39990 kPa	849.1
370 K, 49970 kPa	855.1
390 K, 490 kPa	805.7
390 K, 990 kPa	806.2
390 K, 2000 kPa	807.1
390 K, 3000 kPa	808.1
390 K, 3990 kPa	809
390 K, 5000 kPa	810
390 K, 10000 kPa	814.5
390 K, 19990 kPa	822.7
390 K, 29980 kPa	830.2
390 K, 40000 kPa	837.2
390 K, 49990 kPa	843.6
410 K, 490 kPa	791
410 K, 990 kPa	791.6
410 K, 2000 kPa	792.7
410 K, 3000 kPa	793.7
410 K, 3990 kPa	794.8
410 K, 5000 kPa	795.8
410 K, 10000 kPa	800.8
410 K, 20000 kPa	809.8
410 K, 30000 kPa	817.9
410 K, 39990 kPa	825.3
410 K, 50000 kPa	832.2
430 K, 500 kPa	776.2
430 K, 1000 kPa	776.8
430 K, 1990 kPa	778
430 K, 3000 kPa	779.2
430 K, 3990 kPa	780.3
430 K, 4990 kPa	781.5
430 K, 9990 kPa	786.9
430 K, 19990 kPa	796.7
430 K, 29990 kPa	805.5
430 K, 39990 kPa	813.5
430 K, 49990 kPa	820.8
450 K, 490 kPa	761.2
450 K, 1000 kPa	761.9
450 K, 1990 kPa	763.2
450 K, 2990 kPa	764.5
450 K, 3990 kPa	765.8
450 K, 5000 kPa	767.1
450 K, 10000 kPa	773.1
450 K, 20000 kPa	783.9
450 K, 29990 kPa	793.3
450 K, 39990 kPa	801.9
450 K, 50010 kPa	809.7
470 K, 490 kPa	746.3
470 K, 990 kPa	747
470 K, 2000 kPa	748.6
470 K, 2990 kPa	750
470 K, 3990 kPa	751.5
470 K, 5010 kPa	752.9
470 K, 10000 kPa	759.5
470 K, 19990 kPa	771.2
470 K, 29990 kPa	781.5
470 K, 39990 kPa	790.6
470 K, 49970 kPa	798.8
